The results in this text go back to publication PMC10725351, “Niosomal formulation of mefenamic acid for enhanced cancer targeting; preparation, characterization and biodistribution study using radiolabeling technique” (Journal of Cancer Research and Clinical Oncology, 2023).

The data set is described as follows: In vitro drug release study (dialysis bag, PBS pH 7.4, 37 °C) with kinetic model fitting. In kind it is physicochemical. On the procedure: In comparison to the release of MEF from suspension, the MEF release from the optimal niosomal formulation was assessed. The dialysis method is the technique of choice for assessing the criteria of drug release from the niosomal formula. MEF release from niosomal formulation and suspension was monitored using a dialysis bag (MWCO12000 Da) at 37 °C for 24 h versus PBS (pH 7.4) to simulate the biological conditions. The optimal niosomes formula and suspension (1 ml of each) were loaded separately inside the dialysis tube, and the released quantity of MEF was evaluated in 100 ml of PBS with continuous stirring. At predefined intervals, (1, 2, 3, 4, 5, 6, 8, and 24 h), 2 ml of freshly formed PBS was added to replace two ml that were withdrawn from the release medium to assess the drug release rate. Lastly, the released concentrations of MEF were determined by examining the samples at 285 nm wavelength using a UV–visible spectrophotometer. This study was performed in triplicate (Targhi et al. [2021]).
The mathematical methodology utilized to determine the kinetics of the total released percentages (cumulative) of MEF from the niosomes formulation was linear regression analysis. These models include Higuchi, Korsmeyer Peppas, First Order, and Zero Order. In the end, the correlation coefficient values were compared to select the model that best fit the data. […]

Each structure is given as a SMILES string.

In the case of `Cc1cccc(Nc2ccccc2C(=O)O)c1C` [MEF suspension, mefenamic acid], the “Cumulative MEF release” value (after 24 h, PBS pH 7.4, 37 °C, dialysis bag) amounted to 55.36%. Also, the Order of permeation entry (best-fit release model) is recorded as “Diffusion”.
